Data on 2 compounds can be found in US20160214961A1, “NOVEL SALTS OF CRIZOTINIB AND THEIR PREPARATION” (SHILPA MEDICARE LIMITED, priority 2013, published 2016).

The structures appear in SMILES notation.

Data set [1] can be described thus: Stability on handling and storage of the salts. In kind it is physicochemical. The note with it: storage for longer time; no significant or measurable change.
For data set [2] the following is noted: cited from earlier work.
The conditions of data set [3]: powder; cited from earlier work.
For data set [4] the following is noted: class IV = low solubility and low permeability; cited from earlier work.

As for `C[C@@H](Oc1cc(-c2cnn(C3CCNCC3)c2)cnc1N)c1c(Cl)ccc(F)c1Cl` [Crizotinib Ferulate], in data set [1], the “stability to handle and store for longer time (morphology and physicochemical characteristics)” value is “adequately stable”.
For the compound `C[C@@H](Oc1cc(-c2cnn(C3CCNCC3)c2)cnc1N)c1c(Cl)ccc(F)c1Cl` [Crizotinib, (R)-3-[1-(2,6-Dichloro-3-fluorophenyl)ethoxy]-5-[1-(piperidin-4-yl)-1H-pyrazol-4-yl]pyridin-2-amine], the “solubility in acidic pH” value in data set [2] (acidic pH) is recorded as “highly soluble”. Moreover, the solubility in water entry in data set [2] (water) is reported as “insoluble”. Also, the hygroscopicity entry in data set [3] is given as “non-hygroscopic”. Besides, the “Biopharmaceutics Classification System (BCS) class” value in data set [4] is on record as “class IV”.
